Test results taken from ChEMBL document CHEMBL4680323, “'Proximity frequencies' a new parameter to evaluate the profile of GABAR modulators” (Bioorg Med Chem Lett, 2021).
Calls of active or inactive are those of the source. No cut-off for these calls is given here.

What was measured:
Type in all cases: cell-based
Oocyte [1] = experiment: Inverse agonist activity at GABAA alpha1/beta2/gamma2L (unknown origin) expressed in Xenopus laevis oocyte assessed as reduction in chloride current at 100 uM relative to control; design: scale not given: the % may be the effect or the level left; conditions: Homo sapiens, filed as inverse agonist
Oocyte [2] = experiment: Inverse agonist activity at GABAA alpha1/beta2/gamma2L (unknown origin) expressed in Xenopus laevis oocyte assessed as reduction in chloride current at 30 uM relative to control; design: scale not given: the % may be the effect or the level left; conditions: Homo sapiens
Oocyte [3] = experiment: Antagonist activity at GABAA alpha1/beta2/gamma2L (unknown origin) expressed in Xenopus laevis oocyte assessed as reduction in lorazepam-induced chloride current at 100 uM relative to control; design: scale not given: the % may be the effect or the level left; conditions: Homo sapiens, filed as antagonist
Oocyte [4] = experiment: Modulatory activity at GABAA alpha1/beta2/gamma2L (unknown origin) expressed in Xenopus laevis oocyte assessed as chloride current at 1 to 100 uM; conditions: Homo sapiens, dose 1-100 µM
Oocyte [5] = experiment: Agonist activity at GABAA alpha1/beta2/gamma2L (unknown origin) expressed in Xenopus laevis oocyte assessed as increase in chloride current at 30 uM relative to control; conditions: Homo sapiens, filed as agonist

For COc1ccc2cnc3c(C(=O)NC4CCCCC4)cnn3c2c1, the Activity (Oocyte [1]) was 49% and the Activity (Oocyte [2]) was 19%.

With COc1ccc2cnc3c(C(=O)NC(C)C)cnn3c2c1 the Activity (Oocyte [3]) was “Active” and the Activity (Oocyte [4]) was “inactive”.

COc1ccc2cnc3c(C(=O)NCc4cccs4)cnn3c2c1 gave an Activity (Oocyte [5]) of 34%.

COc1ccc2c(c1)-n1ncc(C(=O)NC3CCCCC3)c1NC2 was tested, and the Activity (Oocyte [3]) was “Active” and the Activity (Oocyte [4]) was “inactive”.

COc1ccc2c(c1)-n1ncc(C(=O)NCC3CCCCC3)c1NC2 was tested, and the Activity (Oocyte [3]) was “Active” and the Activity (Oocyte [4]) was “inactive”.

COc1ccc2cnc3c(C(=O)NCC4CCCCC4)cnn3c2c1 was tested, and the Activity (Oocyte [3]) was “Active” and the Activity (Oocyte [4]) was “inactive”.

COc1ccc2cnc3c(C(=O)NCc4ccco4)cnn3c2c1 was tested, and the Activity (Oocyte [5]) was “Active”.

In the case of COc1ccc2c(c1)-n1ncc(C(=O)NC(C)C)c1NC2, the Activity (Oocyte [3]) is reported as 90% and the Activity (Oocyte [4]) is reported as “inactive”.

With COc1ccc2cnc3c(C(=O)NCc4ccccc4)cnn3c2c1 the Activity (Oocyte [3]) was “Active” and the Activity (Oocyte [4]) was “inactive”.

For COc1ccc2c(c1)-n1ncc(C(=O)NCc3ccco3)c1NC2, the Activity (Oocyte [5]) was “Active”.

With COc1ccc2c(c1)-n1ncc(C(=O)Nc3ccccc3)c1NC2 the Activity (Oocyte [5]) was 34%.

Compound COc1ccc2cnc3c(C(=O)Nc4ccccc4)cnn3c2c1 has an Activity (Oocyte [5]) of 34%.

In the case of COc1ccc2cnc3c(C(=O)NCc4ccccc4OC)cnn3c2c1, the Activity (Oocyte [3]) is reported as “Active” and the Activity (Oocyte [4]) is reported as “inactive”.

COc1ccc2cnc3c(C(N)=O)cnn3c2c1 was tested, and the Activity (Oocyte [3]) was “Active” and the Activity (Oocyte [4]) was “inactive”.

With COc1ccc2c(c1)-n1ncc(C(=O)NCc3ccccc3OC)c1NC2 the Activity (Oocyte [3]) was “Active” and the Activity (Oocyte [4]) was “inactive”.

COc1ccc2c(c1)-n1ncc(C(N)=O)c1NC2 was tested, and the Activity (Oocyte [3]) was “Active” and the Activity (Oocyte [4]) was “inactive”.

COc1ccc2c(c1)-n1ncc(C(=O)NCc3ccccc3)c1NC2 was tested, and the Activity (Oocyte [3]) was “Active” and the Activity (Oocyte [4]) was “inactive”.
